One test concerns the target ROCK1 (Homo sapiens (Human), UniProt Q13464). As to the kind of experiment: ROCK assay (LABCHIP peptide phosphorylation), ROCK1. Format: biochemical. The conditions noted are these: 5 μM ATP, 1.5 μM peptide substrate; read-out: ROCK1 IC50.
Another test addresses ROCK2 (Homo sapiens (Human), UniProt O75116). Put plainly: ROCK assay (LABCHIP peptide phosphorylation), ROCK2. The conditions noted are these: 5 μM ATP, 1.5 μM peptide substrate. The test is classed as biochemical.

pIC50: −log10 of the molar value.

Chain of ROCK1 (Q13464 whole entry, species assumed): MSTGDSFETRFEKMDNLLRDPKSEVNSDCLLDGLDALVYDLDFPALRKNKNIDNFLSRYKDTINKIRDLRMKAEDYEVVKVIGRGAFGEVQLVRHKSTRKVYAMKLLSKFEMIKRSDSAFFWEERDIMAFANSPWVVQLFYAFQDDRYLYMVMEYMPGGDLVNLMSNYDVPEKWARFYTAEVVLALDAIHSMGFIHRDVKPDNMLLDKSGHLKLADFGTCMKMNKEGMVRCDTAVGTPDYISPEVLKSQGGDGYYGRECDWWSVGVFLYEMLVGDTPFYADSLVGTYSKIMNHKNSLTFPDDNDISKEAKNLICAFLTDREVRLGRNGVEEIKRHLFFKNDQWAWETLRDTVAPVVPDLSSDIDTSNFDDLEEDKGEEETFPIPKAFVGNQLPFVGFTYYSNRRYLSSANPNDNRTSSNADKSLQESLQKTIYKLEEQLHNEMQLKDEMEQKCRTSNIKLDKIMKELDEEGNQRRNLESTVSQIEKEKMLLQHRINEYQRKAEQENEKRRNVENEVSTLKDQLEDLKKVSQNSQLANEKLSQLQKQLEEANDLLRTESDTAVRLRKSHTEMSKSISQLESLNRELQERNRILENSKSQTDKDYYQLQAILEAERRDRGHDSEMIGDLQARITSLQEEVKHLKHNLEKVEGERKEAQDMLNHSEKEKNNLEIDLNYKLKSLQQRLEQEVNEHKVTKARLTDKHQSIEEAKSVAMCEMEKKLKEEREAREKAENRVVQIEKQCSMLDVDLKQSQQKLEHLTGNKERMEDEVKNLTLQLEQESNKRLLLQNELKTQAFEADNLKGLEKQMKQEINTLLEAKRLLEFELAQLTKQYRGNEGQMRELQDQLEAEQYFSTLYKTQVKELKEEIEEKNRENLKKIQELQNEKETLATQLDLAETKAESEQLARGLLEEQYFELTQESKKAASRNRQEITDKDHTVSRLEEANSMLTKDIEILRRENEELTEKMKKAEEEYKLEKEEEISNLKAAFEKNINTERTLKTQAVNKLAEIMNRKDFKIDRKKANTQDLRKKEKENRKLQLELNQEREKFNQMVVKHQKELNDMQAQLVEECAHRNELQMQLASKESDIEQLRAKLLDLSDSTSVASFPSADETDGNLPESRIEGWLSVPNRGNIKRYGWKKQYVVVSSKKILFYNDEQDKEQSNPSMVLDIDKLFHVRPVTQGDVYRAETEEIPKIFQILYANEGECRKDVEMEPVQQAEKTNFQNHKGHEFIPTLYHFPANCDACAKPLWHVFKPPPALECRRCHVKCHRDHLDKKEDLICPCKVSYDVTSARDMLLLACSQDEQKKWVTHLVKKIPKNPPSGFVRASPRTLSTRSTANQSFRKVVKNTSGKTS
Chain of ROCK2 (O75116 whole entry, species assumed): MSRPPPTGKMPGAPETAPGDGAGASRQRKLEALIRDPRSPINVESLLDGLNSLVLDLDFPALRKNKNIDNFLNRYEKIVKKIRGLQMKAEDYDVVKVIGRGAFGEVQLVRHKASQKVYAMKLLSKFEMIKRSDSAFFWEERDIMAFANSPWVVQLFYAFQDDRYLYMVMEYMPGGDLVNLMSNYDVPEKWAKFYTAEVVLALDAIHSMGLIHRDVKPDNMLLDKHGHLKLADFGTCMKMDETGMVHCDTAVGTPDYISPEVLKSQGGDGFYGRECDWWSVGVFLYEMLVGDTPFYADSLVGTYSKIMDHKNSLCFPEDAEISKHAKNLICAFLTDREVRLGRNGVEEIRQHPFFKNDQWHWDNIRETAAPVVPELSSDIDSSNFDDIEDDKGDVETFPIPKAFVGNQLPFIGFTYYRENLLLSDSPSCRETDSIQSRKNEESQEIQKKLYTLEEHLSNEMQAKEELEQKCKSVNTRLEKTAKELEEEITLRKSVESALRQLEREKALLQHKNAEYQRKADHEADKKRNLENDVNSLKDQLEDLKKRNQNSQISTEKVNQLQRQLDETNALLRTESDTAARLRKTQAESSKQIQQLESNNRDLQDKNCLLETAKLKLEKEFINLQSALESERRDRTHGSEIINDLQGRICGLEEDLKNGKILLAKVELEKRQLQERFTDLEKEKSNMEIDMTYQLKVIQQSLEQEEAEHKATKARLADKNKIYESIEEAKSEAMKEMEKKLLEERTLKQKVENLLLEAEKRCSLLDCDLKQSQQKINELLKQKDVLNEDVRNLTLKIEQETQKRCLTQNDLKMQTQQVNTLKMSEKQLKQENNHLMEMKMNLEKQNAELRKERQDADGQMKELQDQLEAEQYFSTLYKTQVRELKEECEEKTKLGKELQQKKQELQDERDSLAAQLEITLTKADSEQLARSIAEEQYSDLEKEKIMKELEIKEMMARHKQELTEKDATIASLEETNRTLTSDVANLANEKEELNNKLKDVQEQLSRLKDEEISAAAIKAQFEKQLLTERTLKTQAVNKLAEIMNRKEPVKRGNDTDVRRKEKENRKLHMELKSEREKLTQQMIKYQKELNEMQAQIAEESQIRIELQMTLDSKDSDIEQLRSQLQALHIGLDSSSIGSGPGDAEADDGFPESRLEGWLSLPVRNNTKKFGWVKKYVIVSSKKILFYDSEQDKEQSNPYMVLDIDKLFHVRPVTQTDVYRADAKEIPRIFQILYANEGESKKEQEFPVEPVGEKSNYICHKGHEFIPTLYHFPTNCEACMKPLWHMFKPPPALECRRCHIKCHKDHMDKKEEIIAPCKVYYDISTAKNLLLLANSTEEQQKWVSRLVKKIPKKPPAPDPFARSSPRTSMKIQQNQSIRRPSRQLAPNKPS

Broadly, the pIC50 is the IC50 on a negative log10 scale, so that one unit is a factor of ten. Regarding `O=C(Nc1ccc(-c2n[nH]c(=O)c3ccccc23)c(Cl)c1)c1cnc2ccccn12` [Example 317, N-[3-chloro-4-(4-oxo-3,4-dihydrophthalazin-1-yl)phenyl]imidazo[1,2-a] pyridine-3-carboxamide], the negative logarithm of the IC50 (pIC50) at ROCK1 and against ROCK2 was 7.00 to 10.00 in each case.
Regarding `COc1ccc2c(c1)CN(C(=O)Oc1ccc(-c3c[nH]c(=O)c4ccc(OC)cc34)cc1)C2` [Example 267, 4-(6-Methoxy-1-oxo-1,2-dihydroisoquinolin-4-yl)phenyl 5-methoxyisoindoline-2-carboxylate], the negative logarithm of the IC50 (pIC50) at ROCK1 was 6.00 to 7.00; on ROCK2, 7.00 to 10.00.
For `COC(=O)N1CCC(Cn2nc(C(=O)Nc3ccc(-c4n[nH]c(=O)c5ccccc45)cc3)c3ccccc32)CC1` [Example 344, Methyl 4-((3-((4-(4-oxo-3,4-dihydrophthalazin-1-yl)phenyl)carbamoyl)-1H-indazol-1-yl)methyl)piperidine-1-carboxylate], in that order: 7.00 to 10.00 and 7.00 to 10.00.
For `Cc1cc(NC(=O)c2nn(CCN(C)C)c3ccccc23)ccc1-c1n[nH]c(=O)c2ccccc12` [Example 303, 1-[2-(dimethylamino)ethyl]-N-[3-methyl-4-(4-oxo-3,4-dihydrophthalazin-1-yl)phenyl]-1H-indazole-3-carboxamide], in that order: 6.00 to 7.00 and 7.00 to 10.00.
For `O=C(Nc1ccc(-c2n[nH]c(=O)c3ccccc23)cc1)c1nn(CC(O)COCc2ccccc2)c2ccccc12` (stereo not drawn) [Example 147, 1-[3-(benzyloxy)-2-hydroxypropyl]-N-[4-(4-oxo-3,4-dihydrophthalazin-1-yl)phenyl]-1H-indazole-3-carboxamide], in that order: 7.00 to 10.00 and 7.00 to 10.00.
Consider `CC(C)(O)Cn1nc(C(=O)Nc2ccc(-c3n[nH]c(=O)c4ccccc34)cc2)c2cc(F)ccc21` [Example 167, 5-fluoro-1-(2-hydroxy-2-methylpropyl)-N-[4-(4-oxo-3,4-dihydrophthalazin-1-yl)phenyl]-1H-indazole-3-carboxamide], for which the pIC50 at ROCK1 and against ROCK2 was 7.00 to 10.00 each time.
For `O=C(Nc1ccc(-c2n[nH]c(=O)c3ccccc23)cc1)C1CCN(Cc2ccccc2)C1` (stereo not drawn) [Example 59, 1-benzyl-N-[4-(4-oxo-3,4-dihydrophthalazin-1-yl)phenyl]pyrrolidine-3-carboxamide], the negative logarithm of the IC50 (pIC50) on ROCK1 and against ROCK2 was 4.30 to 6.00 in each case.
Take `CC(C)c1c(C(=O)Nc2ccc(-c3n[nH]c(=O)c4ccccc34)cc2)cn2nc[nH]c(=O)c12` [Example 108, 4-oxo-N-[4-(4-oxo-3,4-dihydrophthalazin-1-yl)phenyl]-5-(propan-2-yl)-3H,4H-pyrrolo[2,1-f][1,2,4]triazine-6-carboxamide]: the pIC50 is 6.00 to 7.00 on ROCK1 and 7.00 to 10.00 on ROCK2.
For `O=C(Nc1ccc(-c2n[nH]c(=O)c3ccccc23)cc1)c1nn(Cc2ccccc2)c2ccccc12` [Example 99, 1-benzyl-N-[4-(4-oxo-3,4-dihydrophthalazin-1-yl)phenyl]-1H-indazole-3-carboxamide], in that order: 7.00 to 10.00 and 7.00 to 10.00.
The matching figures for `O=C(Nc1ccc(-c2n[nH]c(=O)c3ccccc23)cc1)c1csc(-c2ccccc2)n1` [Example 46, N-[4-(4-oxo-3,4-dihydrophthalazin-1-yl)phenyl]-2-phenyl-1,3-thiazole-4-carboxamide]: 4.30 to 6.00 and 7.00 to 10.00.
For `COc1ccc(C#N)c(-n2cnc(C(=O)Nc3ccc(-c4n[nH]c(=O)c5ccccc45)cc3)n2)c1` [Example 239, 1-(2-cyano-5-methoxyphenyl)-N-[4-(4-oxo-3,4-dihydrophthalazin-1-yl)phenyl]-1H-1,2,4-triazole-3-carboxamide], in that order: 6.00 to 7.00 and 7.00 to 10.00.
As to `O=C(Nc1ccc(-c2n[nH]c(=O)c3ccccc23)cc1)C1CC(c2cccc(Cl)c2F)=NO1` (stereo not drawn) [Example 193, 3-(3-chloro-2-fluorophenyl)-N-[4-(4-oxo-3,4-dihydrophthalazin-1-yl)phenyl]-4,5-dihydro-1,2-oxazole-5-carboxamide], the figures for the negative-log IC50 (pIC50) at ROCK1 and on ROCK2 were 4.30 to 6.00 and 6.00 to 7.00, respectively.
For `COCC(O)Cn1cc(C(=O)Nc2ccc(-c3n[nH]c(=O)c4ccccc34)cc2)cn1` (stereo not drawn) [Example 379, 1-(2-Hydroxy-3-methoxypropyl)-N-(4-(4-oxo-3,4-dihydrophthalazin-1-yl)phenyl)-1H-pyrazole-4-carboxamide], in that order: 6.00 to 7.00 and 7.00 to 10.00.
The matching figures for `O=C(Nc1ccc(-c2n[nH]c(=O)c3ccccc23)cc1)c1nn(CC2CNC2)c2ccccc12` [Example 338, 1-(Azetidin-3-ylmethyl)-N-(4-(4-oxo-3,4-dihydrophthalazin-1-yl)phenyl)-1H-indazole-3-carboxamide]: 7.00 to 10.00 and 6.00 to 7.00.
For `O=C(c1ccc2c(c1)N(C(=O)Cc1ccc(-c3n[nH]c(=O)c4ccccc34)cc1)CC2)N1CCOCC1` [Example 293, 4-(4-{2-[6-(morpholine-4-carbonyl)-2,3-dihydro-1H-indol-1-yl]-2-oxoethyl}phenyl)-1,2-dihydrophthalazin-1-one], in that order: 6.00 to 7.00 and 7.00 to 10.00.
For `O=c1[nH]nc(-c2ccc(Nc3ncc4ccccc4n3)cc2)c2ccccc12` [Example 78, 4-{4-[(Quinazolin-2-yl)amino]phenyl}-1,2-dihydrophthalazin-1-one], the negative logarithm of the IC50 (pIC50) was 6.00 to 7.00 at ROCK1 and 7.00 to 10.00 against ROCK2.
For `CC(C)(O)CCn1nc(C(=O)Nc2ccc(-c3n[nH]c(=O)c4ccccc34)cc2)c2ccccc21` [Example 333, 1-(3-Hydroxy-3-methylbutyl)-N-(4-(4-oxo-3,4-dihydrophthalazin-1-yl)phenyl)-1H-indazole-3-carboxamide], in that order: 7.00 to 10.00 and 7.00 to 10.00.
For `O=C(Nc1ccc(-c2n[nH]c(=O)c3ccccc23)cc1)c1cnn([C@H]2C[C@@H]3CC[C@H]2C3)c1` [Example 393, 1-((1S,2S,4R)-Bicyclo[2.2.1]heptan-2-yl)-N-(4-(4-oxo-3,4-dihydrophthalazin-1-yl)phenyl)-1H-pyrazole-4-carboxamide], in that order: 7.00 to 10.00 and 7.00 to 10.00.
For `O=C(Nc1ccc(-c2n[nH]c(=O)c3ccccc23)cc1)c1nn(Cc2ccccn2)c2ccccc12` [Example 160, N-[4-(4-oxo-3,4-dihydrophthalazin-1-yl)phenyl]-1-(pyridin-2-ylmethyl)-1H-indazole-3-carboxamide], the pIC50 on ROCK1 and at ROCK2 was 7.00 to 10.00 each time.
For the molecule `O=C(Nc1ccc(-c2n[nH]c(=O)c3ccccc23)cc1)c1nn(CC2CCN(CCCCO)CC2)c2ccccc12` [Example 322, 1-((1-(4-Hydroxybutyl)piperidin-4-yl)methyl)-N-(4-(4-oxo-3,4-dihydrophthalazin-1-yl)phenyl)-1H-indazole-3-carboxamide], the pIC50 on ROCK1 is 7.00 to 10.00; on ROCK2, 6.00 to 7.00.
`COc1ccc(-n2nnc(C(=O)Nc3ccc(-c4n[nH]c(=O)c5ccccc45)cc3)c2C)cc1` [Example 401, 1-(4-Methoxyphenyl)-5-methyl-N-(4-(4-oxo-3,4-dihydrophthalazin-1-yl)phenyl)-1H-1,2,3-triazole-4-carboxamide]: the negative logarithm of the IC50 (pIC50) at ROCK1 and on ROCK2 was 7.00 to 10.00 each time.
For the molecule `CC(C)(O)Cn1nc(C(=O)Nc2ccc(-c3n[nH]c(=O)c4ccccc34)c(CO)c2)c2ccccc21` [Example 360, 1-(2-Hydroxy-2-methylpropyl)-N-(3-(hydroxymethyl)-4-(4-oxo-3,4-dihydrophthalazin-1-yl)phenyl)-1H-indazole-3-carboxamide], the pIC50 on ROCK1 is 4.30 to 6.00; at ROCK2, 7.00 to 10.00.
The matching figures for `Cc1cc(NC(=O)c2nn(CC3CCOCC3)c3ccccc23)ccc1-c1n[nH]c(=O)c2ccccc12` [Example 313, N-[3-methyl-4-(4-oxo-3,4-dihydrophthalazin-1-yl)phenyl]-1-(oxan-4-ylmethyl)-1H-indazole-3-carboxamide]: 7.00 to 10.00 and 7.00 to 10.00.
In the case of `O=C(Nc1ccc(-c2n[nH]c(=O)c3ccccc23)cc1)c1nc2ccccc2s1` [Example 115, N-[4-(4-oxo-3,4-dihydrophthalazin-1-yl)phenyl]-1,3-benzothiazole-2-carboxamide], the pIC50 at ROCK1 and on ROCK2 was 7.00 to 10.00 each time.
Regarding `CC(C)(O)Cn1nc(C(=O)Nc2ccc(-c3n[nH]c(=O)c4ccccc34)cc2O)c2ccccc21` [Example 353, 1-(2-Hydroxy-2-methylpropyl)-N-(2-hydroxy-4-(4-oxo-3,4-dihydrophthalazin-1-yl)phenyl)-1H-indazole-3-carboxamide], the figures for the pIC50 at ROCK1 and against ROCK2 were 6.00 to 7.00 and 7.00 to 10.00, respectively.
`Cn1cc(C(=O)Nc2ccc(-c3n[nH]c(=O)c4ccccc34)cc2)cn1` [Example 212, 1-methyl-N-[4-(4-oxo-3,4-dihydrophthalazin-1-yl)phenyl]-1H-pyrazole-4-carboxamide]: the values for the negative-log IC50 (pIC50) on ROCK1 and against ROCK2 were 6.00 to 7.00 and 7.00 to 10.00, respectively.
Take `CCn1cncc1C(=O)Nc1ccc(-c2n[nH]c(=O)c3ccccc23)cc1` [Example 233, 1-ethyl-N-[4-(4-oxo-3,4-dihydrophthalazin-1-yl)phenyl]-1H-imidazole-5-carboxamide]: the negative-log IC50 (pIC50) on ROCK1 and at ROCK2 was 6.00 to 7.00 throughout.
In the case of `COc1cc2cc(C(=O)Nc3ccc(-c4n[nH]c(=O)c5ccccc45)cc3)oc2cc1F` [Example 180, 6-fluoro-5-methoxy-N-[4-(4-oxo-3,4-dihydrophthalazin-1-yl)phenyl]-1-benzofuran-2-carboxamide], the negative-log IC50 (pIC50) at ROCK1 and against ROCK2 was 7.00 to 10.00 throughout.
On to `O=C(Nc1ccc(-c2n[nH]c(=O)c3ccccc23)cc1)N1CCc2ccccc21` [Example 76, N-(4-(4-Oxo-3,4-dihydrophthalazin-1-yl)phenyl)indoline-1-carboxamide], for which the negative logarithm of the IC50 (pIC50) at ROCK1 and against ROCK2 was 7.00 to 10.00 throughout.
As for `O=C(Nc1ccc(-c2n[nH]c(=O)c3ccccc23)cc1)c1nn(CC2COC2)c2cc(F)ccc12` [Example 159, 6-fluoro-1-(oxetan-3-ylmethyl)-N-[4-(4-oxo-3,4-dihydrophthalazin-1-yl)phenyl]-1H-indazole-3-carboxamide], the negative-log IC50 (pIC50) at ROCK1 and against ROCK2 was 7.00 to 10.00 throughout.

Source of the values: patent US9926282B2, “Phthalazinones and isoquinolinones as rock inhibitors” (BRISTOL-MYERS SQUIBB COMPANY, priority 2013, dated 2018).
